“And” between values parts separate entries of the source, which are not always exact repeats. Equal values may be shown once. Records with an inconclusive call do not appear.
Test system: BDF1 mice, B16 melanoma s.c., survival/tumor T/C
Assay: NCI In Vivo Anticancer Drug Screen. Data for tumor model B16 Melanoma (subcutaneous) in B6D2F1 (BDF1) mice
Settings: endpoint: median survival time, higher = longer survival
Description: The antitumor activity of compounds was measured in mice bearing transplantable tumors. Survival or tumor size were measured and the results are expressed as the measurement made in the treated group (T) divided by the measurement made in the vehicle treated control group (C). The tumor model used in this assay is B16 Melanoma (subcutaneous) in B6D2F1 (BDF1) mice

[1] = dose: 50.0 mg/kg/injection, schedule: Q01DX009 (ip), vehicle: saline with Tween-80
[2] = dose: 100.0 mg/kg/injection, schedule: Q01DX009 (ip), vehicle: saline with Tween-80
[3] = dose: 18.0 mg/kg/injection, schedule: Q01DX009 (ip), vehicle: saline

## COc1cccc2c1C(=O)c1c(O)c3c(c(O)c1C2=O)CC(O)(C(C)=O)CC3OC1CC(N)C(O)C(C)O1 (centres undefined)
dose: 5.8 mg/kg/injection, schedule: Q01DX009 (ip), vehicle: saline
  T/C: 107 % of control
dose: 11.7 mg/kg/injection, schedule: Q01DX009 (ip), vehicle: saline
  T/C: 103 % of control
dose: 23.4 mg/kg/injection, schedule: Q01DX009 (ip), vehicle: saline
  T/C: 120 % of control

## Nc1nc(=S)c2[nH]cnc2[nH]1
dose: 48.0 mg/kg/injection, schedule: Q01DX001 (ip), vehicle: alkali diluted with saline
  T/C: 102 % of control

## O=C1C=CC(=O)O1 (tested in a mixture with another compound)
dose: 6.25 mg/kg/injection, schedule: Q01DX009 (ip), vehicle: other
  T/C: 92 % of control
dose: 12.5 mg/kg/injection, schedule: Q01DX009 (ip), vehicle: other
  T/C: 101 % of control
dose: 25.0 mg/kg/injection, schedule: Q01DX009 (ip), vehicle: other
  T/C: 120 % of control

## CCOC(=O)c1csc(-c2csc(CCNC(=O)c3ccccc3)n2)n1
dose: 6.25 mg/kg/injection, schedule: Q01DX009 (ip), vehicle: saline with Tween-80
  T/C: 95 % of control
dose: 12.5 mg/kg/injection, schedule: Q01DX009 (ip), vehicle: saline with Tween-80
  T/C: 102 % of control
dose: 25.0 mg/kg/injection, schedule: Q01DX009 (ip), vehicle: saline with Tween-80
  T/C: 87 % of control
[1]
  T/C: 91 % of control
[2]
  T/C: 106 % of control

## COc1cc2c(c(OC)c1OC)-c1ccc(OC)c(=O)cc1[C@@H](NC(C)=O)CC2
dose: 63.0 micrograms/kg/injection, schedule: Q01DX009 (ip), vehicle: saline
  T/C: 95 % of control
dose: 125.0 micrograms/kg/injection, schedule: Q01DX009 (ip), vehicle: saline
  T/C: 116 % of control
dose: 250.0 micrograms/kg/injection, schedule: Q01DX009 (ip), vehicle: saline
  T/C: 105 % of control
dose: 500.0 micrograms/kg/injection, schedule: Q01DX009 (ip), vehicle: saline
  T/C: 103 % of control

## COC1C(C)OC(OC2CC(C)(O)Cc3cc4c(c(O)c32)C(=O)c2c(O)cc3c(c2C4=O)OC2OC3(C)C(O)C(N(C)C)C2O)C(OC)C1(C)OC (centres undefined)
dose: 2.5 mg/kg/injection, schedule: Q01DX009 (ip), vehicle: other
  T/C: 90 % of control
dose: 625.0 micrograms/kg/injection, schedule: Q01DX009 (ip), vehicle: other
  T/C: 113 % of control
dose: 1250.0 micrograms/kg/injection, schedule: Q01DX009 (ip), vehicle: other
  T/C: 95 % of control
dose: 2500.0 micrograms/kg/injection, schedule: Q01DX009 (ip), vehicle: other
  T/C: 122 % of control
dose: 5000.0 micrograms/kg/injection, schedule: Q01DX009 (ip), vehicle: other
  T/C: 113 % of control

## CCCCCc1cc(O)c2c(c1)OC(C)(C)c1ccc(C)cc1-2
dose: 64.0 mg/kg/injection, schedule: Q01DX009 (ip), vehicle: saline
  T/C: 113 % of control
dose: 128.0 mg/kg/injection, schedule: Q01DX009 (ip), vehicle: saline
  T/C: 98 % of control
dose: 256.0 mg/kg/injection, schedule: Q01DX009 (ip), vehicle: saline
  T/C: 117 % of control
dose: 512.0 mg/kg/injection, schedule: Q01DX009 (ip), vehicle: saline
  T/C: 98 % of control

## CC1(C)N=C(N)N=C(N)N1c1ccc(CCCCc2ccc(Cl)c(S(=O)(=O)F)c2)c(Cl)c1
dose: 8.0 mg/kg/injection, schedule: Q01DX009 (ip), vehicle: saline
  T/C: 119 % of control
dose: 12.0 mg/kg/injection, schedule: Q01DX009 (ip), vehicle: saline
  T/C: 110 % of control
[3]
  T/C: 107 % of control
dose: 27.0 mg/kg/injection, schedule: Q01DX009 (ip), vehicle: saline
  T/C: 94 % of control

## O=P(OCC(Br)CBr)(OCC(Br)CBr)OCC(Br)CBr (centres undefined)
[1]
  T/C: 110 % of control
[2]
  T/C: 114 % of control
dose: 200.0 mg/kg/injection, schedule: Q01DX009 (ip), vehicle: saline with Tween-80
  T/C: 98 % of control
dose: 400.0 mg/kg/injection, schedule: Q01DX009 (ip), vehicle: saline with Tween-80
  T/C: 105 % of control

## CCOC(=O)c1csc(CCNC(=O)c2ccccc2)n1
dose: 6.25 mg/kg/injection, schedule: Q01DX009 (ip), vehicle: water
  T/C: 101 % of control
dose: 12.5 mg/kg/injection, schedule: Q01DX009 (ip), vehicle: water
  T/C: 94 % of control
dose: 25.0 mg/kg/injection, schedule: Q01DX009 (ip), vehicle: water
  T/C: 113 % of control
dose: 50.0 mg/kg/injection, schedule: Q01DX009 (ip), vehicle: water
  T/C: 87 % of control
dose: 100.0 mg/kg/injection, schedule: Q01DX009 (ip), vehicle: water
  T/C: 98 % of control

## CC1(C)N=C(N)N=C(N)N1c1ccc(CCC(=O)Nc2ccc(S(=O)(=O)F)cc2)c(Cl)c1
dose: 6.25 mg/kg/injection, schedule: Q01DX009 (ip), vehicle: saline
  T/C: 108 % of control
dose: 12.5 mg/kg/injection, schedule: Q01DX009 (ip), vehicle: saline
  T/C: 103 % of control
dose: 25.0 mg/kg/injection, schedule: Q01DX009 (ip), vehicle: saline
  T/C: 114 % of control

## CO[C@H]1/C=C/O[C@@]2(C)Oc3c(C)c(O)c4c(O)c(c(/C=N/N5C(C)CN(Cc6ccccc6)CC5C)c(O)c4c3C2=O)NC(=O)/C(C)=C\C=C\[C@H](C)[C@H](O)[C@@H](C)[C@@H](O)[C@@H](C)[C@H](OC(C)=O)[C@@H]1C (some centres undefined)
dose: 50.0 mg/kg/injection, schedule: Q02DX Z (oral), vehicle: Klucel (hydroxypropylcellulose) (HPC)
  T/C: 101 % of control
dose: 100.0 mg/kg/injection, schedule: Q02DX Z (oral), vehicle: Klucel (hydroxypropylcellulose) (HPC)
  T/C: 89 % of control
dose: 200.0 mg/kg/injection, schedule: Q02DX Z (oral), vehicle: Klucel (hydroxypropylcellulose) (HPC)
  T/C: 86 % of control

## NC(CS/C(Cl)=C/Cl)C(=O)O (centres undefined)
dose: 1.25 mg/kg/injection, schedule: Q01DX009 (ip), vehicle: saline
  T/C: 102 % of control
dose: 2.5 mg/kg/injection, schedule: Q01DX009 (ip), vehicle: saline
  T/C: 95 % of control
dose: 5.0 mg/kg/injection, schedule: Q01DX009 (ip), vehicle: saline
  T/C: 97 % of control and 106 % of control
[3]
  T/C: 101 % of control

## O=c1n(CC2CO2)c(=O)n(CC2CO2)c(=O)n1CC1CO1 (centres undefined)
dose: 20.0 mg/kg/injection, schedule: Q01DX011 (ip), vehicle: saline
  T/C: 109 % of control
dose: 40.0 mg/kg/injection, schedule: Q01DX011 (ip), vehicle: saline
  T/C: 155 % of control

## Cc1ncc([N+](=O)[O-])n1CCO
dose: 37.5 mg/kg/injection, schedule: Q01DX009 (ip), vehicle: Klucel (hydroxypropylcellulose) (HPC)
  T/C: 100 % of control
dose: 37.5 mg/kg/injection, schedule: Q04DX003 (ip), vehicle: Klucel (hydroxypropylcellulose) (HPC)
  T/C: 100 % of control
dose: 75.0 mg/kg/injection, schedule: Q01DX009 (ip), vehicle: Klucel (hydroxypropylcellulose) (HPC)
  T/C: 100 % of control
dose: 75.0 mg/kg/injection, schedule: Q04DX003 (ip), vehicle: Klucel (hydroxypropylcellulose) (HPC)
  T/C: 111 % of control
dose: 150.0 mg/kg/injection, schedule: Q01DX009 (ip), vehicle: Klucel (hydroxypropylcellulose) (HPC)
  T/C: 108 % of control
dose: 150.0 mg/kg/injection, schedule: Q04DX003 (ip), vehicle: Klucel (hydroxypropylcellulose) (HPC)
  T/C: 111 % of control
dose: 300.0 mg/kg/injection, schedule: Q01DX009 (ip), vehicle: Klucel (hydroxypropylcellulose) (HPC)
  T/C: 93 % of control
dose: 300.0 mg/kg/injection, schedule: Q04DX003 (ip), vehicle: Klucel (hydroxypropylcellulose) (HPC)
  T/C: 112 % of control
dose: 600.0 mg/kg/injection, schedule: Q04DX003 (ip), vehicle: Klucel (hydroxypropylcellulose) (HPC)
  T/C: 121 % of control
